Literature values in US8829054B1, “Ready-to-use co-solvents pharmaceutical composition in modified flexible plastic container” (Welgrace Research Group, priority 2013, dated 2014).

Details: published literature, Rosenberg et al. 1988

## COC(=O)CCc1ccc(OCC(O)CNC(C)C)cc1.Cl (stereo not shown) [Esmolol, methyl3-[4-[2-hydroxy-3-(isopropylamino)propoxy]phenyl]propionate hydrochloride]
  activation energies for Esmolol decompositions: 19 to 21.5 kcal/mol
